According to US6958334B2, “Inhibitors of Akt activity” (Merck & Co., Inc., priority 2001, dated 2005):

System: PKC (mix of isoforms)
Assay: PKC assay (counter screen)
Assay type: biochemical
Details: myelin basic protein substrate; read-out: Counter screens IC50 (μM) PKC
Protocol: Each PKC assay consists of the following components:
Final assay concentrations were as follows: 0.25 mM EGTA, 0.4 mM CaCl, 20 mM Tris pH 7.5, 10 mM MgCl, 1 mM 2-mercaptoethanol, 0.32 mg/ml phosphatidylserine, 0.032 mg/ml diacylglycerol, 10 μM ^33P-ATP, 70 μg/ml MBP, 10 ng/ml PKC, 0.1 mg/ml BSA.
Assays are performed using 96 deep well assay plates. In each assay well 10 μl of solvent control or appropriate inhibitor dilution with 5 μl ^33P-ATP (components #5 and #3) were premixed. In a separate tube, a mixture containing equal volumes of components #1, #2, #4, and #6 was prepared. The assay reaction was initiated, by adding 35 μl of the components #1, #2, #4, and #6 mixture to wells containing ^33P-ATP and inhibitor. The liquid in the assay wells was thoroughly mixed and the assay reactions incubated for 20 minutes at room temperature. The reactions were stopped by adding 100 mM EDTA (50 μl) and 100 mM sodium pyrophosphate (50 μl) and mixing. Phosphorylated MBP was collected on PVDF membranes in 96 well filter plates and quantitated by scintillation counting.

Compound | IC50 [µM]
CN(C)CC(C)(C)CNc1nn2c(-c3ccccc3)nnc2c2ccccc12 [Compound 1, 2,2,N,N-tetramethyl-N-(3-phenyl-[1,2,4]triazolo[3,4-α]phthalazin-6-yl)-propane-1,3-diamine] | > 40
COc1ccc(-c2nnc3c4ccccc4c(NCC(C)(C)CN(C)C)nn23)cc1 [Compound 2, N′-[3-(4-Methoxy-phenyl)-[1,2,4]triazolo[4,3-α]phthalazin-6-yl)-2,2,N,N-tetramethyl-propane-1,3-diamine] | > 40
